Experimental data taken from publication PMC12703741, “Light-Activated Metal-Dependent Protein Degradation: A Heterobifunctional Ruthenium(II) Photosensitizer Targeting New Delhi Metallo-β-lactamase 1” (Journal of the American Chemical Society, 2025).
Like-named read-outs stand apart in the source and are kept apart here.

What was measured:
NDM-1 in E. coli NDM-1 = NDM-1 in E. coli NDM-1 (Klebsiella pneumoniae, UniProt C7C422); details: E. coli NDM-1, nitrocefin
Experimental: shaking at 180 rpm for 18 hours. The overnight suspensions were subcultured (1:100) in fresh LB and incubated to yield an OD600 of 0.55-0.60. The were harvested and pelleted at 3500  g for 15 minutes at 4 °C. The pellets were washed with PBS and pelleted again under the same
conditions. The bacteria were then stored as pellets at 4 C until required for the assay and to
be used within 5 hours. To prepare the bacteria fo r the assay, a pellet was resuspended in an
adjusted volume of fresh PBS to achieve an OD600 ≈ 5.0 and then kept at 4 C for 1 hr before
being used. The bacteria were then diluted to OD600 ≈ 2.0 in fresh PBS and used immediately.
inhibitor control, and one row of Bacteria Buffer B (50 µL) which served as a no-bacteria
control (providing five rows in total). Bacteria stock (OD600 ≈ 2.0, 40 µL, final concentration
of bacteria in well = OD600 ≈ 0.8) was added to each well of the first four rows, the plate was
sealed, and the samples then pre-incubated for 60 min under either ‘dark’ or ‘light’ conditions
Under ‘dark’ conditions, the plate was left sealed in a
substrate in well = 100 µM) was conducted manually and then the plate immediately resealed
substrate had been completely consumed. Method conditions are as follows: cycle time = 100

E. coli NDM-1 [1] = system: E. coli NDM-1
Experimental: based screening experiments were performed in biological triplicate, each replicate starting
from a new single colony inoculation. Statistical significance was determined using two-way
ANOVA followed by Sidak’s multiple comparison test, with a single pooled variance.
Concentration (MIC) assay
20% glycerol stocks of E. coli MG1655 pSU18 NDM-1 (E. coli NDM-1) and E. coli MG1655
pSU18 empty (E. coli empty) stored at -80 °C were used to streak nutrient agar plates. After
The MHBII culture growing both E. coli strains contained chloramphenicol
as an antibiotic resistance marker (2 µg/mL, equivalent to ¼ MICE. coli for chloramphenicol =
8 µg/mL). The resulting suspensions were each diluted 100 x (15 µL in 1.5 mL) in MHBII with
chloramphenicol (2 µg/mL), and the resultant suspensions were incubated to OD600 = 0.6-1.2
To generate the two-dimensional drug interaction matrix, four 96-well source plates were
prepared. In Source Plates A1-3, the three analytes were subjected to a two-fold serial dilution
across the rows (A to G), maintaining constant concentrations within each row and achieving
a vertical concentration gradient. In parallel, Source Plate B was prepared by diluting
meropenem in a two-fold series across the Columns (9 to 2), generating a horizontal
concentration gradient across the plate. Equal volumes (1 µL) from one of the source plates A
and source plate B were transferred into a 96-well assay plate to establish the checkerboard
layout with a 50X dilution into MHBII (50 μL total volume).
The prepared bacterial cells were diluted to OD600 = 0.01. Each prepared checkerboard plate
was then inoculated with 50 μL per well of bacterial culture in MHBII with ½ MIC of
chloramphenicol (100 μL total volume per well , final OD600 = 0.005). Control wells were
included to account for drug-free growth, sterility, and single-agent gradient exposures. Dark
For the light condition, the
OD600 was measured on a BMG Labtech CLARIOstar plate reader. The MIC is the first value
at which no growth is seen. All E. coli NDM-1 data were averaged from 3 biological replicates,

[2] = system: seven mammalian cell lines; details: panel of seven mammalian cell lines including HepG2
[3] = Photostability by UV-Vis in PBS; assay type: physicochemical; details: 10 μM, 450 nm
Experimental: Both complexes were stable up to and including 23 J cm^–2 (Figure S5). The lifetime of the excited state is one of the key factors which affect ROS generation. […] To quantify the generation of ^1O2 produced by the complexes, 1,3-diphenylisobenzofuran (DPBF) was used as a ^1O2 scavenger. […]
spectra of both compounds in PBS ( 10 μM) under light irradiation (450 nm, 23 J cm -2 over 240 […]
1.2.4 Electron Paramagnetic Resonance (EPR)
All EPR measurements were performed using a Bruker Magnettech spectrometer (ESR5000), Bruker (Germany), at room temperature. EPR samples were transferred to a 20 μL BLAUBRAND micropipette and spectra were recorded at 9.47 GHz microwave frequency, 2 mW microwave power, 100 kHz modulation frequency and 0.1 mT modulation amplitude. The field was scanned from 331.3 mT to 343.3 mT and a single scan was acquired.

RAW264.7 = details: RAW
E. coli empty [4] = details: 320 μM, 1 h
Experimental: (§1) In parallel, a control set was incubated without compounds for 50 min, followed by incubation with 75 μM meropenem trihydrate for 10 min. Cells were then pelleted, washed, resuspended in water, lysed, and clarified before LC-MS analysis.
(§2) 1.12 LC-MS accumulation assay
(§3) 1.12.1 Bacterial Strains and Growth Conditions:
(§4) Accumulation assay was performed two E. coli K-12 MG1655 strains transfected with pSU18 vector containing NDM-1 expression or an empty vector control. Cell growth was performed in Luria-Bertani (LB) broth (NaCl 10g/L, K2HPO4 6.3 g/L, KH2PO4 1.8 g/L, sodium citrate […]
(§5) 1.12.2 Preparation of Accumulation Assay Samples for LC-MS Analysis:
(§6) Assay was adapted from the work of Geddes et al. and Widya et al.9–11 E. coli MG1655 pSU18 NDM-1 and pSU18 Empty were grown from single colonies at 37 °C with aeration, while shaking at 180 rpm for 18 hours. The overnight suspensions were subcultured (1:100) in fresh LB and incubated to yield an OD600 of 0.55-0.60. The were harvested and pelleted at 3500 × g for 15 minutes at 4 °C. The pellets were washed with Meuller -Hinton II (MHII) broth and pelleted again under the same conditions. The pellets were resuspended in a n adjusted volume of fresh MHII to achieve an OD 600 ≈ 10.0. Shielded from ambient light, cells were incubated with 320 μM of metal complex for 1 hour while shaking at 180 rpm. Separately, another set of cells was incubated under identical conditions without any added metal complex. Cells […]
(§7) incubated with metal complex were maintained incubating under the same conditions for an additional 10 minutes, while the second set of cells was incubated with 75 μM of meropenem trihydrate for 10 minutes. After treatment, 10 μL of each cell suspension was taken and dilution 1:10 PBSA for OD600 viability analysis. A 150 μL aliquot of each cell suspension was layered onto 150 μL of cold silicone oil mixture (1:9, v/v AR20:High temperature silicone oil) and centrifuged at 3500 × g for 1 hour at 4 °C. The aqu eous and oil supernatant were carefully aspirated to isolate the cell pellets, which were resuspended in 50 μL of water and transferred to a fresh microplate. For lysis, a 1:1 (v/v) mixture of acetonitrile and methanol was added to each sample, and the sam ples were freeze thawed at -80 °C for approximately 18 hours.
(§8) Thawed samples were clarified by two rounds of centrifugation at 3500 × g for 1 hour at 4 °C, […]
(§9) External calibration curves were prepared by mixing compound at increasing concentration with extracted cell lysate (prepared in parallel to analyte containing samples) in concentrations […]
(§10) nM were also prepared to assess quantitative accuracy. Samples were submitted to LCMS analysis as biological triplicate using a single calibration curve. […]
(§11) was spiked into each calibration and analyte sampl e as an internal standard.

E. coli NDM-1 [5] = details: 320 μM, 1 h
Experimental: as §1, §2, §3, §4, §5, §6, §7, §8, §9, §10, §11

[6] = 1O2 quantum yield by DPBF photooxidation; assay type: physicochemical; details: oxygenated methanol, 450 nm
Experimental: The 1O2 quantum yields were determined by tracking the photooxidation of 1,3-
fully aerated and exposed to LED irradiation at 450 nm (1 3 mW cm−2).
reaction mixture at 411 nm was recorded at one-second intervals.
cumulative absorbance changes at 411 nm versus cumulative irradiation time.

E. coli empty [7] = details: dark and light samples equivalent

Sequence of NDM-1 in E. coli NDM-1 (C7C422 29-270 limits assumed): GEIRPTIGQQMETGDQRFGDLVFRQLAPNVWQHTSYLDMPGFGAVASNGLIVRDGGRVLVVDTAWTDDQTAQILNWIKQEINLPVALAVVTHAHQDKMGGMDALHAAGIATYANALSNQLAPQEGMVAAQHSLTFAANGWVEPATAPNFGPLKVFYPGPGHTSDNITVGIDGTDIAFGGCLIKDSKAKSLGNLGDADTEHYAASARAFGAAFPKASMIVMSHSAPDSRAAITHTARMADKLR

F[P-](F)(F)(F)(F)F.F[P-](F)(F)(F)(F)F.[Ru+2].c1ccc(-c2ccccn2)nc1.c1ccc(-c2ccccn2)nc1.c1ccc(-n2cnc3c4cccnc4c4ncccc4c32)cc1 [Ru2, [Ru(2,2'-bipyridine)2(1-phenyl-imidazo[4,5,f][1,10]phenanthroline)](PF6)2]
LD50 (HCT116; HCT116, 24 h): > 50 µM
LD50 (HCT116; HCT116, 48 h): > 50 µM
LD50 (hTERT RPE-1; RPE1, 24 h): > 50 µM
LD50 (hTERT RPE-1; RPE1, 48 h): > 50 µM
IC50(dark) (NDM-1 in E. coli NDM-1; dark): no inhibition
IC50(light) (NDM-1 in E. coli NDM-1; light 450 nm, 60 J cm^-2): no inhibition
MIC (E. coli NDM-1 [1]; E. coli NDM-1, dark and light samples equivalent): >160 µM
Fold change in Meropenem MIC (E. coli NDM-1 [1]; compound 5 μM, dark): 0 fold
Fold change in Meropenem MIC (E. coli NDM-1 [1]; compound 5 μM, light 450 nm, 60 J cm^-2): 0 fold
Fold change in Meropenem MIC (E. coli NDM-1 [1]; compound 10 μM, dark): 0 fold
Fold change in Meropenem MIC (E. coli NDM-1 [1]; compound 10 μM, light 450 nm, 60 J cm^-2): 0 fold
Fold change in Meropenem MIC (E. coli NDM-1 [1]; compound 20 μM, dark): 0 fold
Fold change in Meropenem MIC (E. coli NDM-1 [1]; compound 20 μM, light 450 nm, 60 J cm^-2): 0 fold
Fold change in Meropenem MIC (E. coli NDM-1 [1]; compound 40 μM, dark): 0 fold
Fold change in Meropenem MIC (E. coli NDM-1 [1]; compound 40 μM, light 450 nm, 60 J cm^-2): 0 fold
Fold change in Meropenem MIC (E. coli NDM-1 [1]; compound 80 μM, dark): 0 fold
Fold change in Meropenem MIC (E. coli NDM-1 [1]; compound 80 μM, light 450 nm, 60 J cm^-2): 0 fold
Cytotoxicity (no cytotoxicity up to) [2]: > 50 µM
Light dose up to which complex is stable [3]: ≥ 23 J cm^–2
LD50 (RAW264.7; 24 h): > 50 µM
LD50 (RAW264.7; 48 h): > 50 µM
Accumulation (E. coli empty [4]): 405 nM/OD600
Accumulation (E. coli NDM-1 [5]): 494 nM/OD600
LD50 (HEK293T; 24 h): > 50 µM
LD50 (HEK293T; 48 h): > 50 µM
1O2 quantum yield (ΦΔ) [6]: 0.87
LD50 (HeLa; 24 h): > 50 µM
LD50 (HeLa; 48 h): > 50 µM
MIC (E. coli empty [7]): >160 µM
LD50 (HaCaT; 24 h): > 50 µM
LD50 (HaCaT; 48 h): > 50 µM
LD50 (HepG2; HepG2, 24 h): > 50 µM
LD50 (HepG2; HepG2, 48 h): > 50 µM
